According to PubChem BioAssay AID2060349 (Molecular Pharmacology Branch, DTP, NCI, 2025):

System: 762968-020-R-J2-PDC spheroids viability
Assay: Anticancer human tumor 762968-020-R-J2-PDC patient-derived colon carcinoma cell line growth inhibition [TAK]
Settings: spheroids with HUVEC and MSC; for IC50: curve of first compound; for viability, T/C: stronger effect = lower value; active = viability on the fitted dose curve at most 10% of control; inactive = the rest
Source text: Combinatorial screen of targeted agents with TAK-243 and ipatasertib in multi-cell type tumor spheroids
A high-throughput screen of multi-cell type tumor spheroids was designed to identify active combinations of targeted small molecules and TAK-243 or ipatasertib. Complex spheroids include a stromal component modeled by human endothelial cells (HUVEC) and fibroblasts modeled by human mesenchymal stem cells (MSCs). The concentration ranges selected for each drug and investigational agent were based upon clinically achievable concentrations if the clinical Cmax of the agent was known.
Compounds. The drugs and investigational agents: TAK-243 (785004), ipatasertib (767898), everolimus (733504), selumetinib (741078), bortezomib (756655), trametinib (758246), ixazomib (758254), vemurafenib (761431), dabrafenib (764134), sapanisertib (764658), alpelisib (765974), and copanlisib (816437), were obtained from the National Cancer Institute (NCI) Developmental Therapeutics Program Chemical Repository. The FDA-approved anticancer drug set is available from the NCI Developmental Therapeutics Program. […] The stock solutions were prepared in dimethyl sulfoxide (DMSO, Sigma-Aldrich, St. Louis, MO, cat. D2650) at 800-fold the tested concentration and stored at -70 degrees C prior to their use. All drugs and investigational agents were tested over a range starting from a high concentration at or near the clinical Cmax and decreasing in half-log increments. If the clinical Cmax for an agent had not been determined, the highest concentration tested was 10 microM.
NCI60 Cell Culture. NCI60 cell lines were obtained from the NCI Developmental Therapeutics Program Tumor Repository. For each lot of cells, the Repository performed Applied Biosystems AmpFLSTR Identifiler testing with PCR amplification to confirm consistency with the published Identifier STR profile for each cell line. Cells were kept in continuous culture for no more than 20 passages. The optimal seeding densities for each of the cell lines at each time point assessed were determined prior to performing the concentration response studies. Briefly, the NCI60 human tumor lines were grown as monolayers in RPMI 1640 medium supplemented with 10% FBS and 2 mmol/L L-glutamine.
An additional 2 lines were from the NCI60 cell line panel including melanomas, MALME-3M and SK-MEL-2. Pooled donor human umbilical vein endothelial cells (HUVEC, Lonza, cat. CC-2519) and human mesenchymal stem cells (hMSC, Lonza, cat. PT-2501) were purchased from Lonza (Walkersville, MD).
PDMR cell lines were grown in complete medium (DC medium): Dulbecco's modified Eagle's medium (DMEM)/F12 supplemented with 5% fetal bovine serum (FBS), 2 mM L-glutamine, 100 U/mL penicillin and 100 µg/ml streptomycin, 0.4 µg/ml hydrocortisone, 10 ng/ml epidermal growth factor (EGF) recombinant human protein, 24 µg/mL adenine, and 0.1 mg/mL primocin. During culture from frozen stock vials, PDMR cells were cultured in the same medium containing 10 µM Y-27632 (see Table 3). The PDCs were cultured in complete DMEM/F12 media without 10 microM Y-27632 dihydrochloride for at least two passages prior to the screen. The pooled donor HUVEC and hMSC were cultured in endothelial cell growth medium 2 (PromoCell, Heidelberg, Germany, cat. C-22011) and mesenchymal stem cell growth medium 2 (PromoCell, cat. C-28009), respectively. For all experiments, HUVEC and hMSC were used at passages </=5.
For the pre-screen, cell seeding densities were determined from a titration spanning the range from 5,000 to 313 cells per well. The mct-spheroids including 60% malignant cells, 25% HUVEC and 15% MSC dispensed as a mixture into U-bottom Ultra-Low Attachment 384-well plates (Corning, NY)
High-throughput Drug Combination Screening.
Prior to their inoculation into 384-well plates, malignant cells, HUVEC, and hMSC were removed from T flasks using TrypLE express (Thermo Fisher Scientific, cat. 12605036) and harvested by centrifugation for 5 min at 233 x g. […]
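Note: spheroids exposed to drug for 7 days before readout.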

CC(C)CC(NC(=O)C(Cc1ccccc1)NC(=O)c1cnccn1)B(O)O (stereo not given) + CC(C)NCC(C(=O)N1CCN(c2ncnc3c2C(C)CC3O)CC1)c1ccc(Cl)cc1
> 0.01 µM: IC50 (second compound 0.3 µM) | IC50 (second compound 0.949 µM) | IC50 (second compound 3 µM) | IC50 (second compound 9.49 µM) | IC50 (second compound 30 µM)
inactive: viability, T/C (second compound 0.3 µM, first compound 31.6 pM) 101% | viability, T/C (second compound 0.3 µM, first compound 0.0001 µM) 101% | viability, T/C (second compound 0.3 µM, first compound 0.000316 µM) 108% | viability, T/C (second compound 0.3 µM, first compound 0.001 µM) 102% | viability, T/C (second compound 0.3 µM, first compound 0.00316 µM) 98.3% | viability, T/C (second compound 0.3 µM, first compound 0.01 µM) 98.1% | viability, T/C (second compound 0.949 µM, first compound 31.6 pM) 103% | viability, T/C (second compound 0.949 µM, first compound 0.0001 µM) 102% | viability, T/C (second compound 0.949 µM, first compound 0.000316 µM) 96.1% | viability, T/C (second compound 0.949 µM, first compound 0.001 µM) 100% | viability, T/C (second compound 0.949 µM, first compound 0.00316 µM) 105% | viability, T/C (second compound 0.949 µM, first compound 0.01 µM) 85.5% | viability, T/C (second compound 3 µM, first compound 31.6 pM) 108% | viability, T/C (second compound 3 µM, first compound 0.0001 µM) 109% | viability, T/C (second compound 3 µM, first compound 0.000316 µM) 106% | viability, T/C (second compound 3 µM, first compound 0.001 µM) 98.8% | viability, T/C (second compound 3 µM, first compound 0.00316 µM) 106% | viability, T/C (second compound 3 µM, first compound 0.01 µM) 89% | viability, T/C (second compound 9.49 µM, first compound 31.6 pM) 98.5% | viability, T/C (second compound 9.49 µM, first compound 0.0001 µM) 98.7% | viability, T/C (second compound 9.49 µM, first compound 0.000316 µM) 99.3% | viability, T/C (second compound 9.49 µM, first compound 0.001 µM) 104% | viability, T/C (second compound 9.49 µM, first compound 0.00316 µM) 98.9% | viability, T/C (second compound 9.49 µM, first compound 0.01 µM) 97.5% | viability, T/C (second compound 30 µM, first compound 31.6 pM) 87.7% | viability, T/C (second compound 30 µM, first compound 0.0001 µM) 91.9% | viability, T/C (second compound 30 µM, first compound 0.000316 µM) 87.4% | viability, T/C (second compound 30 µM, first compound 0.001 µM) 85.4% | viability, T/C (second compound 30 µM, first compound 0.00316 µM) 95.3% | viability, T/C (second compound 30 µM, first compound 0.01 µM) 87.2%

Cn1cnc2c(F)c(Nc3ccc(Br)cc3Cl)c(C(=O)NOCCO)cc21 + CC(C)NCC(C(=O)N1CCN(c2ncnc3c2C(C)CC3O)CC1)c1ccc(Cl)cc1
2.35 µM: IC50 (second compound 0.3 µM)
> 3 µM: IC50 (second compound 0.949 µM) | IC50 (second compound 3 µM) | IC50 (second compound 9.49 µM) | IC50 (second compound 30 µM)
inactive: viability, T/C (second compound 0.3 µM, first compound 0.00949 µM) 94.6% | viability, T/C (second compound 0.3 µM, first compound 0.03 µM) 95.5% | viability, T/C (second compound 0.3 µM, first compound 0.0949 µM) 89.6% | viability, T/C (second compound 0.3 µM, first compound 0.3 µM) 84.2% | viability, T/C (second compound 0.3 µM, first compound 0.949 µM) 69.9% | viability, T/C (second compound 0.3 µM, first compound 3 µM) 44.5% | viability, T/C (second compound 0.949 µM, first compound 0.00949 µM) 103% | viability, T/C (second compound 0.949 µM, first compound 0.03 µM) 97.5% | viability, T/C (second compound 0.949 µM, first compound 0.0949 µM) 87% | viability, T/C (second compound 0.949 µM, first compound 0.3 µM) 83.4% | viability, T/C (second compound 0.949 µM, first compound 0.949 µM) 74.8% | viability, T/C (second compound 0.949 µM, first compound 3 µM) 50.5% | viability, T/C (second compound 3 µM, first compound 0.00949 µM) 106% | viability, T/C (second compound 3 µM, first compound 0.03 µM) 97.7% | viability, T/C (second compound 3 µM, first compound 0.0949 µM) 95.2% | viability, T/C (second compound 3 µM, first compound 0.3 µM) 85.8% | viability, T/C (second compound 3 µM, first compound 0.949 µM) 72.2% | viability, T/C (second compound 3 µM, first compound 3 µM) 58.4% | viability, T/C (second compound 9.49 µM, first compound 0.00949 µM) 96.5% | viability, T/C (second compound 9.49 µM, first compound 0.03 µM) 83.7% | viability, T/C (second compound 9.49 µM, first compound 0.0949 µM) 80.6% | viability, T/C (second compound 9.49 µM, first compound 0.3 µM) 79.1% | viability, T/C (second compound 9.49 µM, first compound 0.949 µM) 66.3% | viability, T/C (second compound 9.49 µM, first compound 3 µM) 55.8% | viability, T/C (second compound 30 µM, first compound 0.00949 µM) 82.7% | viability, T/C (second compound 30 µM, first compound 0.03 µM) 85.3% | viability, T/C (second compound 30 µM, first compound 0.0949 µM) 83.2% | viability, T/C (second compound 30 µM, first compound 0.3 µM) 79% | viability, T/C (second compound 30 µM, first compound 0.949 µM) 70.5% | viability, T/C (second compound 30 µM, first compound 3 µM) 57.8%
